Assay results reported in patent US20150258043A1, “USE OF SPHINGOID LONG CHAIN BASES AND THEIR ANALOGS IN TREATING AND PREVENTING BACTERIAL INFECTIONS” (YEDA RESEARCH AND DEVELOPMENT CO. LTD., priority 2012, published 2015).
Entries after “also recorded” stand apart in the source; their conditions may differ. Where two headings read alike, the source gives them in different places.

Legend:
[1] = cited from earlier work
P. aeruginosa strain 762 = test: Effect of LCBs on P. aeruginosa growth in vitro (colony counts); assay type: cell-based, Pseudomonas aeruginosa; settings: for inhibition of P. aeruginosa growth in vitro (in words): concentrations up to 50 μM
Experimental: P. aeruginosa strain 762 or ATCC 27853 were grown in LB medium at 37° C. until the early logarithmic phase (OD550 0.2). Bacteria were then diluted in PBS to a concentration of 5×10^3 CFU/ml. Stock solutions of sphingolipids (5 mM in 7.5% n-Octyl-β-D-Glucopyranoside (OGP) or in DMSO were prepared by sonication. Sphingolipids were added to the bacteria (0.1-50 μM in 0.075% OGP or 1% DMSO). Bacteria were incubated with sphingolipids for 2 hr at 37° C. and a sample of 200 μl bacteria solution were plated on LB agar plates, incubated overnight at 37° C. and colonies were counted.
The direct effect of sphingosine and other sphingoid long chain bases (LCBs) on the growth of P. aeruginosa was examined in vitro. Bacteria were incubated with a variety of LCBs and the EC50 values on bacterial growth were determined (Table 1).

[2] = system: P. aeruginosa strains 762, PA14 and ATCC 27853; test: Pulmonary P. aeruginosa infection of CF and CerS2 null mice, inhalation treatment (bacteria in lung, sickness score); assay type: in vivo, mouse; settings: CF and CerS2 null mice; inhalation (125 μM) 1 h before or 1 h after intranasal infection with 1×10^8 CFU
Experimental: (A,B) The number of bacteria in the lungs and the overall sickness score (C,D) of WT, CerS2 null and CF mice 3-4 h after intranasal infection with 1×10^8 CFU of P. aeruginosa strains 762 (A,C) and CF mice with strains PA14 and ATCC 27853. Mice were inhaled with 0.9% NaCl or acid ceramidase 1 h prior (b.i.) to infection, or with sphingosine or FTY720 1 h before (b.i.) or 1 h after (a.i.) infection. Sickness score 4, severely affected (unresponsive animal); score 3 affected, (heavy breathing, low body temperature, ruffled fur) score 2, moderately affected (ruffled fur, heavy breathing); score 1, slightly affected (ruffled fur); score 0, unaffected (healthy appearance). Data are means±s.d., n=4.
Pulmonary infection of CF or CerS2 mice was achieved by intranasal application of P. aeruginosa strains 762, ATCC 27853 or PA14. Mice inhaled acid ceramidase, sphingosine, FTY720 or a combination of sphingosine and ceramide 1 hr before or after pulmonary infection. The number of bacteria in the lung was determined by culturing aliquots of lysed lungs on agar plates. Clinical symptoms of the infection were scored.
Inhalation was performed with a PARI Boy SX nebulizer (PARI GmbH, Starnberg, Germany). This nebulizer generates a fine aerosol mist by pumping the fluid with an air jet. The mice inhaled the aerosol via a mask that is part of an oral inhalation device for children (LL-Nebulizer); the mask was clipped at the sides to cover only the mouse's nose and the surrounding part of the face. […]
P. aeruginosa were grown for 14 to 14.5 h on fresh tryptic soy agar (TSA) plates (Becton Dickinson Biosciences, Germany). […] The bacterial OD was determined, and the bacteria were diluted in prewarmed H/S to a concentration of 1×10^8 CFU per 20 μL. […]
Lungs were removed, homogenised and lysed for 10 min in 5 mg/ml saponin to release intracellular bacteria. […] Bacterial counts (CFU) were counted after 18 h.

[3] = system: P. aeruginosa ATCC 27853 internalization into tracheal epithelial cells; test: Uptake of P. aeruginosa into tracheal epithelial cells with cytochalasin B; assay type: cell-based, mouse; settings: 10 μM cytochalasin B; strain ATCC 27853; data not shown
[4] = Pseudomonas aeruginosa, 762, Table 3, Example 3, method of Example 2, n=3 for each analog, given as ranges, read-out: EC50
[5] = Pseudomonas aeruginosa, P. aeruginosa strain 762, 2 hrs at 37° C. in 0.075% OGP, colonies counted, at least 3 independent experiments, read-out: EC50 (μM) ± S.D.
[6] = Pseudomonas aeruginosa, Table 2 non-inhibitors, strain 762, up to 50 μM in 0.075% OGP, 2 hrs at 37° C., read-out: EC50

CCCC[C@@H](C)[C@@H](OC(=O)C[C@@H](CC(=O)O)C(=O)O)[C@H](C[C@@H](C)C[C@H](O)CCCC[C@@H](O)C[C@H](O)[C@H](C)N)OC(=O)C[C@@H](CC(=O)O)C(=O)O (stereo in doubt) [FB1, fumonisin B1, reference compound]
pKa (in PBS) ([1]; superscript reference mark): >9^4 | EC50 (P. aeruginosa strain 762; Pseudomonas aeruginosa, 762): > 50 µM | inhibition of P. aeruginosa growth in vitro (in words) (P. aeruginosa strain 762): without effect; also recorded: did not inhibit growth of the bacteria at all

CCCCCCCCCCCCC/C=C/[C@H](O)[C@H](N)CO[C@@H]1O[C@H](CO)[C@H](O)[C@H](O)[C@H]1O (stereo in doubt) [Galactosyl Sphingosine (Psychosine), Galactosyl D-erythro-sphingosine (psychosine)]
EC50 (P. aeruginosa strain 762; [4]): 1 to 5 µM | EC50 (P. aeruginosa strain 762; [5]): 2.2 ± 1.4 µM

CCCCCCCCCCCCCCC[C@@H](O)[C@H](N)CO (stereo in doubt) [L-threo-dihydrosphingosine (Safingol), L-threo-dihydrosphingosine (L-threo-sphinganine)]
EC50 (P. aeruginosa strain 762; [4]): 0.5 to 1 µM | EC50 (P. aeruginosa strain 762; [5]): 0.4 µM | inhibition of P. aeruginosa growth in vitro (in words) (P. aeruginosa strain 762; listed as L-threo-dihydrosphingosine): inhibits as well as the natural occurring D-erythro enantiomer | inhibition of P. aeruginosa growth in vitro (in words) (P. aeruginosa strain 762; listed as L-threo-sphinganine): more potent than the neutral ones

CCCCCCCCCCCCC/C=C/[C@@H](O)[C@H](N)CO (stereo in doubt) [L-threo-sphingosine]
EC50 (P. aeruginosa strain 762; [4]): 0.5 to 1 µM | EC50 (P. aeruginosa strain 762; [5]): 0.6 ± 0.2 µM

CCCCCCCCCCCCC/C=C/[C@H](O)[C@H](N)COP(=O)(O)O (stereo in doubt) [Sphingosine-1-P, sphingosine-1-phosphate, reference compound]
EC50 (P. aeruginosa strain 762; [4]): > 50 µM | EC50 (P. aeruginosa strain 762; [6]): > 50 µM | inhibition of P. aeruginosa growth in vitro (in words) (P. aeruginosa strain 762): without effect | inhibition of P. aeruginosa growth in vitro (in words) (P. aeruginosa strain 762; listed as sphingosine-1-phosphate (S1P)): did not inhibit growth of the bacteria at all

CCCCCCCCCCCCCCC[C@H](O)[C@@H](C)N [1-deoxy-D-erythro-dihydrosphingosine]
EC50 (P. aeruginosa strain 762; [5]): 0.7 µM

CCCCCCCCCCCCC/C=C/[C@H](O)[C@@H](C)N [1-deoxy-D-erythro-sphingosine]
EC50 (P. aeruginosa strain 762; [5]): 0.9 ± 0.1 µM

CCCCCCCCCCCCC/C=C/[C@@H](O)CN [1-desoxymethyl sphingosine, 1-desoxymethylsphingosine]
EC50 (P. aeruginosa strain 762; [5]): 0.7 ± 0.1 µM

CCCCCCCCCCCCC/C=C/C[C@H](N)CO [3-deoxy-D-erythro-sphingosine]
EC50 (P. aeruginosa strain 762; [5]): 0.5 µM

CCCCCCCCc1ccc(CC[C@](N)(CO)CCP(=O)(O)O)cc1 [(R)-FTY-phosphonate]
EC50 (P. aeruginosa strain 762; [4]): 5 to 50 µM

CCCCCCC/C=C/[C@@H](O)[C@@H](N)CO [D-erythro-C12-Sphingosine]
EC50 (P. aeruginosa strain 762; [6]): > 50 µM

CCCCCCCCC/C=C/[C@H](O)[C@H](N)CO [D-erythro-C14-Sphingosine]
EC50 (P. aeruginosa strain 762; [6]): > 50 µM

CCCCCCCCCCC/C=C/[C@H](O)[C@H](N)CO [D-erythro-C16-Sphingosine, D-erythro-C16-sphingosine]
EC50 (P. aeruginosa strain 762; [5]): 1 ± 0.2 µM

CCCCCCCCCCCCCCC/C=C/[C@H](O)[C@H](N)CO [D-erythro-C20-Sphingosine, D-erythro-C20-sphingosine]
EC50 (P. aeruginosa strain 762; [5]): 0.3 µM | inhibition of P. aeruginosa growth in vitro (in words) (P. aeruginosa strain 762): more potent than C18-sphingosine

CCCCCCCCCCCCCCC[C@@H](O)[C@@H](N)CO [D-erythro-dihydrosphingosine, (2S,3R)-2-aminooctadecane-1,3-diol]
EC50 (P. aeruginosa strain 762; [4]): 0.5 to 1 µM | EC50 (P. aeruginosa strain 762; [5]): 0.6 ± 0.5 µM

CCCCCCCCCCCCCCC[C@H](O)[C@@H](N)CO [D-threo-dihydrosphingosine, D-threo-dihydrosphingosine (D-threo-sphinganine)]
EC50 (P. aeruginosa strain 762; [5]): 0.5 ± 0.1 µM

CCCCCCCCCCCCC/C=C/[C@H](O)[C@@H](N)CO [D-threo-sphingosine]
EC50 (P. aeruginosa strain 762; [5]): 0.6 ± 0.1 µM

CCCC[C@@H](C)[C@@H](OC(=O)C[C@@H](CC(=O)O)C(=O)O)[C@H](C[C@@H](C)C[C@H](O)CCCC[C@@H](O)C[C@H](O)[C@H](C)N)OC(=O)C[C@@H](CC(=O)O)C(=O)O [FB1, fumonisin B1, reference compound]
EC50 (P. aeruginosa strain 762; Pseudomonas aeruginosa, 762, 2 h): > 50 µM

CCCCCCCCc1ccc(CCC(N)(CO)CO)cc1 [FTY720, 2-amino-2-[2-(4-octylphenyl)ethyl]propane-1,3-diol]
pK (in PBS) ([1]; superscript reference marks): 7.8^3 | protection from pulmonary P. aeruginosa infection [2]: completely protected CF and CerS2 null mice from P. aeruginosa infection and even eliminated an existing infection; also recorded: potent inhibitor in vivo; also recorded: rescue CF and CerS2 null mice from pulmonary P. aeruginosa infection; also recorded: prevents pulmonary P. aeruginosa infection | EC50 (P. aeruginosa strain 762; [4]): 1 to 5 µM | EC50 (P. aeruginosa strain 762; [5]): 1.9 µM

CCCCCCCCCCCCCCC[C@@H](O)[C@@H](N)CO [L-erythro-dihydrosphingosine, L-erythro-dihydrosphingosine (L-erythro-sphinganine)]
EC50 (P. aeruginosa strain 762; [5]): 0.8 ± 0.1 µM

CCCCCCCCCCCCC/C=C/[C@@H](O)[C@@H](N)CO [L-erythro-sphingosine]
EC50 (P. aeruginosa strain 762; [5]): 0.8 ± 0.1 µM

CCCCCCCCCCCCC/C=C/[C@@H](O)[C@H](CO)NC [Monomethyl D-erythro-Sphingosine, Monomethyl D-erythro-sphingosine]
EC50 (P. aeruginosa strain 762; [5]): 1.9 ± 0.1 µM

CCCCCCCCCCCCCCC[C@@H](O)[C@H](CO)NC(C)=O [N-acetyl-D-erythro-dihydrosphingosine]
EC50 (P. aeruginosa strain 762; [6]): > 50 µM | inhibition of P. aeruginosa growth in vitro (in words) (P. aeruginosa strain 762): reduces the activity

CCCCCCCCCCCCCC[C@@H](O)[C@@H](O)[C@@H](N)CO [Phyto-sphingosine, 4-D-hydroxysphinganine (phytosphingosine)]
EC50 (P. aeruginosa strain 762; [5]): 0.9 µM | category as bacterial growth inhibitor (P. aeruginosa strain 762; classes by EC50): strong inhibitor

C=C1[C@@H](C)[C@H]2[C@H](Cc3ccccc3)NC(=O)[C@]23OC(=O)/C=C/[C@H](O)CCC[C@@H](C)C/C=C/[C@H]3[C@@H]1O [cytochalasin B]
internalization of P. aeruginosa into tracheal epithelial cells [3]: prevented internalization
